According to US9775797B2, “Personal care composition” (Conopco, Inc., priority 2012, dated 2017):

Test system: HaCaT and HeMnDP co-culture
Assay: coculture melanin content assay (after Calcein-AM viability check)
Type: cell-based
Details: melanin content vs control, 72 hrs incubation
Experimental: The samples at various concentrations were analysed for skin lightening efficacy using the coculture melanin content assay, the details of which are given below: Set up of Co-cultures: • 1. 4*10^4 HaCaT and 4×10^4 […] (1:1) per well (single wells/treatment) in 12-well Nunc plates on Day 0 are seeded so as to establish a co-culture system. • 2. The volume of media per well should be 1 mL of a 1:1 mix of Melanocyte Growth Media and Keratinocyte Growth Media • 3. 24 hrs later, fresh media containing actives are added. Again 1 mL of a 1:1 mix of MGM and KGM for active addition are used. • 4. Plates are incubated for 72 hrs in a 37° C. CO2 incubator. • 5. […] In the meantime, the fluorescence is measured (excitation at 490 nm and emission at 520 nm) using TECAN instrument after 30 min of dye incubation. • 5. After reading the plate, the buffer containing Calcein is removed and melanin content assay is then carried out. […] After the reading for Calcein-AM is taken, the buffer containing Calcein-AM is removed from all the wells. • 2. […] The absorbance is measured in the Lab-5 Tecan instrument at 405 nm. • 6. For non-cytotoxic concentrations (based on Calcein cut-off of ±15% of control), the average MCA is calculated and reported as MCA as percentage of the control sample. The % inhibition is then calculated. […]

Structure (SMILES) | % Inhibition (sample concentration 0.5 ppm) [%] | inhibition at 14.2 ppm (Homo sapiens, HaCaT, sample concentration 14.2 ppm) [%]
O=C1C[C@@H](c2ccc(O)c(O[C@@H]3O[C@H](CO)[C@@H](O)[C@H](O)[C@H]3O)c2)Oc2cc(O[C@@H]3O[C@H](CO)[C@@H](O)[C@H](O)[C@H]3O)ccc21 [Butrin, butrin] | 31 | 
O=c1cc(CO)occ1O [Example 3, Kojic Acid] |  | 22
